We go through 25 compounds from patent publication US10160755B2 (Plexxikon Inc., priority 2015, dated 2018).

The assay addresses T1, FLT3-ITD (Homo sapiens, UniProt P36888).
T1 construct: FLT3-ITD; Invitrogen #PV6190
T1 sequence (P36888 1-993): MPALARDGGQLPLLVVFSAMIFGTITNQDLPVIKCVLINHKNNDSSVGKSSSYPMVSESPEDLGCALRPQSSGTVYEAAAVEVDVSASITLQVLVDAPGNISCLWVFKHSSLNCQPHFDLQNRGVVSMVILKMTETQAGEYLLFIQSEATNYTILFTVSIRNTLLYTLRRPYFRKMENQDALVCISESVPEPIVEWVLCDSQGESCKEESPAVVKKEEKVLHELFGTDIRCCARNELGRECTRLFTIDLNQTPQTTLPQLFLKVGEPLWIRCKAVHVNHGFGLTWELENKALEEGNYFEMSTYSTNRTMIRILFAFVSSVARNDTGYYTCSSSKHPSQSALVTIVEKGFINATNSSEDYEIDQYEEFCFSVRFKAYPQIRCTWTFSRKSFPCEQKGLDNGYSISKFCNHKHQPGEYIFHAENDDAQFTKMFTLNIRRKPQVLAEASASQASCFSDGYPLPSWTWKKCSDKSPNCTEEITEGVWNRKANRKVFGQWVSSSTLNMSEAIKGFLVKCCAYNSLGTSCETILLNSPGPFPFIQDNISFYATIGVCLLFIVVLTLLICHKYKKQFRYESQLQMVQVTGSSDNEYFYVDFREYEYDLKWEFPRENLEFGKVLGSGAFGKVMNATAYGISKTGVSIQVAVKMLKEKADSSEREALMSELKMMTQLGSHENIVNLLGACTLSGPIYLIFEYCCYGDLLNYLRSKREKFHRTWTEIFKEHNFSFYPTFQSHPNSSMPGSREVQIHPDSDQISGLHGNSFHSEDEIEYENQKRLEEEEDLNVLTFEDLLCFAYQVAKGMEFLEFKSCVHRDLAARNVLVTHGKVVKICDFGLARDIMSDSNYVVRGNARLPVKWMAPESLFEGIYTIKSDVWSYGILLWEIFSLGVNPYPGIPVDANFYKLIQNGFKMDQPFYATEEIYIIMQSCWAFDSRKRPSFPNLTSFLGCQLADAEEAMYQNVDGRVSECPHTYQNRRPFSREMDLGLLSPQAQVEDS
Briefly: FLT3-ITD biochemical kinase assay (AlphaScreen). A digest of the protocol:
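Recombinant enzyme phosphorylated biotin-poly(Glu4-Tyr) peptide (30 nM final); ATP final 10 μM for FLT3-D835Y, 100 μM for FLT3-ITD. AlphaScreen read-out: streptavidin donor and anti-phosphotyrosine (PY20) acceptor beads, 20 and 60 min at room temperature; inhibition seen as drop in 580 nm proximity signal; IC50 determined.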

Turning to `CC(C)(C)n1cnc2ccc(-c3c[nH]c4ncc(-c5cnn(CC(F)(F)F)c5)cc34)cc21` [P-252, 1-tert-butyl-6-[5-[1-(2,2,2-trifluoroethyl)pyrazol-4-yl]-1H-pyrrolo[2,3-b]pyridin-3-yl]benzimidazole], the half-inhibitory concentration (IC50) was in the range of 0.0001 to 1 µM. With `N#Cc1cc(-c2cnc3[nH]cc(-c4ccc5ncn(C6CCCNC6)c5c4)c3c2)ccc1F` (stereo not shown) [P-208, 2-fluoro-5-[3-[3-(3-piperidyl)benzimidazol-5-yl]-1H-pyrrolo[2,3-b]pyridin-5-yl]benzonitrile], the IC50 was 0.0001 to 1 µM. The figure for `COc1ncc(-c2cnc3[nH]cc(-c4ccc5ncn(C6CCCNC6)c5c4)c3n2)cn1` (stereo not shown) [P-264, 2-(2-methoxypyrimidin-5-yl)-7-[3-(3-piperidyl)benzimidazol-5-yl]-5H-pyrrolo[2,3-b]pyrazine] is 0.0001 to 1 µM. As to `COc1ncccc1C#Cc1cnc2[nH]cc(-c3ccc4ncn(C(C)(C)C)c4c3)c2n1` [P-250, 7-(3-tert-butylbenzimidazol-5-yl)-2-[2-(2-methoxy-3-pyridyl)ethynyl]-5H-pyrrolo[2,3-b]pyrazine], the IC50 lay in the range of 0.0001 to 1 µM. In turn, `COc1cnc2[nH]cc(-c3ccc4ncn(Cc5ccc(F)cc5)c4c3)c2c1` [P-110, 1-[(4-fluorophenyl)methyl]-6-(5-methoxy-1H-pyrrolo[2,3-b]pyridin-3-yl)benzimidazole] returned a half-inhibitory concentration (IC50) of 0.0001 to 1 µM.

`COc1cnc2[nH]cc(-c3ccc4ncn(-c5ccc(Cl)cc5)c4c3)c2c1` [P-104, 1-(4-chlorophenyl)-6-(5-methoxy-1H-pyrrolo[2,3-b]pyridin-3-yl)benzimidazole] returned an IC50 of 0.0001 to 1 µM. The figure for `N#Cc1cccc(C#Cc2cnc3[nH]cc(-c4ccc5ncn(C6CCCNC6)c5c4)c3c2)c1` (stereo not shown) [P-243, 3-[2-[3-[3-(3-piperidyl)benzimidazol-5-yl]-1H-pyrrolo[2,3-b]pyridin-5-yl]ethynyl]benzonitrile] is 0.0001 to 1 µM; for `N#Cc1cccc(-c2cnc3[nH]cc(-c4ccc5ncn(-c6ccc(F)c(Cl)c6)c5c4)c3c2)c1` [P-210, 3-[3-[3-(3-chloro-4-fluoro-phenyl)benzimidazol-5-yl]-1H-pyrrolo[2,3-b]pyridin-5-yl]benzonitrile] it is 0.0001 to 1 µM. The figure for `N#Cc1cc(-c2cnc3[nH]cc(-c4ccc5ncn(C6CCCNC6)c5c4)c3n2)ccc1F` (stereo not shown) [P-238, 2-fluoro-5-[7-[3-(3-piperidyl)benzimidazol-5-yl]-5H-pyrrolo[2,3-b]pyrazin-2-yl]benzonitrile] is 0.0001 to 1 µM. `C#Cc1cnc2[nH]cc(-c3ccc4ncn(C(C)(C)C)c4c3)c2n1` [P-259, 7-(3-tert-butylbenzimidazol-5-yl)-2-ethynyl-5H-pyrrolo[2,3-b]pyrazine] displayed an IC50 of 0.0001 to 1 µM. For `CC(C)(C)n1cnc2ccc(-c3c[nH]c4ncc(-c5ccnc(N6CCOCC6)c5)nc34)cc21` [P-228, 4-[4-[7-(3-tert-butylbenzimidazol-5-yl)-5H-pyrrolo[2,3-b]pyrazin-2-yl]-2-pyridyl]morpholine], the IC50 was 0.0001 to 1 µM.

With `COc1cnc2[nH]cc(-c3cnc4ncn(Cc5cc(C)on5)c4c3)c2c1` [P-144, 3-[[6-(5-methoxy-1H-pyrrolo[2,3-b]pyridin-3-yl)imidazo[4,5-b]pyridin-1-yl]methyl]-5-methyl-isoxazole], the IC50 fell in the range of 0.0001 to 1 µM.

`c1cc(-c2cnc3[nH]cc(-c4ccc5ncn(C6CCCNC6)c5c4)c3n2)cc(N2CCOCC2)n1` (stereo not shown) [P-262, 4-[4-[7-[3-(3-piperidyl)benzimidazol-5-yl]-5H-pyrrolo[2,3-b]pyrazin-2-yl]-2-pyridyl]morpholine] showed a half-maximal inhibitory concentration (IC50) of 0.0001 to 1 µM. Take `CC(C)n1cnc2ccc(-c3c[nH]c4ncc(-c5cnn(CC(F)(F)F)c5)cc34)cc21` [P-268, 1-isopropyl-6-[5-[1-(2,2,2-trifluoroethyl)pyrazol-4-yl]-1H-pyrrolo[2,3-b]pyridin-3-yl]benzimidazole]: the concentration for half-maximal inhibition (IC50) lay in the range of 0.0001 to 1 µM.

`CC(C)(C)n1cnc2ccc(-c3c[nH]c4ncc(-c5ccc(N6CCOCC6)cc5)nc34)cc21` [P-100, 4-[4-[7-(3-tert-butylbenzimidazol-5-yl)-5H-pyrrolo[2,3-b]pyrazin-2-yl]phenyl]morpholine] displayed an IC50 of 0.0001 to 1 µM. Compound `COc1cc(-c2cnc3[nH]cc(-c4ccc5ncn(C(C)C)c5c4)c3n2)ccn1` [P-113, 7-(3-isopropylbenzimidazol-5-yl)-2-(2-methoxy-4-pyridyl)-5H-pyrrolo[2,3-b]pyrazine] came in with a 50% inhibitory concentration (IC50) of 0.0001 to 1 µM. The same measure for `COc1ncc(-c2cnc3[nH]cc(-c4ccc5ncn(C(C)(C)C)c5c4)c3n2)cn1` [P-263, 7-(3-tert-butylbenzimidazol-5-yl)-2-(2-methoxypyrimidin-5-yl)-5H-pyrrolo[2,3-b]pyrazine]: 0.0001 to 1 µM; for `CC(C)(C)n1cnc2ccc(-c3c[nH]c4ncc(-c5cnn(C(F)F)c5)nc34)cc21` [P-255, 7-(3-tert-butylbenzimidazol-5-yl)-2-[1-(difluoromethyl)pyrazol-4-yl]-5H-pyrrolo[2,3-b]pyrazine]: 0.0001 to 1 µM; for `COc1cnc2[nH]cc(-c3ccc4ncn(-c5cccc(C#N)c5)c4c3)c2c1` [P-135, 3-[6-(5-methoxy-1H-pyrrolo[2,3-b]pyridin-3-yl)benzimidazol-1-yl]benzonitrile]: 0.0001 to 1 µM. Turning to `C(#Cc1cnc2[nH]cc(-c3ccc4ncn(C5CCCNC5)c4c3)c2n1)c1ccccc1` (stereo not shown) [P-248, 2-(2-phenylethynyl)-7-[3-(3-piperidyl)benzimidazol-5-yl]-5H-pyrrolo[2,3-b]pyrazine], the half-maximal inhibitory concentration (IC50) is 0.0001 to 1 µM. On to `COc1cc(C(=O)Nc2cnc3[nH]cc(-c4ccc5ncn(C(C)(C)C)c5c4)c3c2)ccn1` [P-245, N-[3-(3-tert-butylbenzimidazol-5-yl)-1H-pyrrolo[2,3-b]pyridin-5-yl]-2-methoxy-pyridine-4-carboxamide], for which the concentration for half-maximal inhibition (IC50) fell in the range of 0.0001 to 1 µM. Compound `CC(C)(C)n1cnc2ccc(-c3c[nH]c4ncc(-c5cccc(N6CCCCS6(=O)=O)c5)cc34)cc21` [P-221, 2-[3-[3-(3-tert-butylbenzimidazol-5-yl)-1H-pyrrolo[2,3-b]pyridin-5-yl]phenyl]thiazinane 1,1-dioxide] had an IC50 of 0.0001 to 1 µM. On to `O=S1(=O)CCCN1c1cccc(-c2cnc3[nH]cc(-c4ccc5ncn(C6CCCNC6)c5c4)c3n2)c1` (stereo not shown) [P-273, 2-[3-[7-[3-(3-piperidyl)benzimidazol-5-yl]-5H-pyrrolo[2,3-b]pyrazin-2-yl]phenyl]-1,2-thiazolidine 1,1-dioxide], for which the IC50 was in the range of 0.0001 to 1 µM.

Compound `CC(C)(C)n1cnc2ccc(-c3c[nH]c4ncc(-c5cccc(S(=O)(=O)N6CCCC6)c5)cc34)cc21` [P-220, 1-tert-butyl-6-[5-(3-pyrrolidin-1-ylsulfonylphenyl)-1H-pyrrolo[2,3-b]pyridin-3-yl]benzimidazole] came in with an IC50 of 0.0001 to 1 µM. Take `FC(F)(F)Oc1cccc(C#Cc2cnc3[nH]cc(-c4ccc5ncn(C6CCCNC6)c5c4)c3n2)c1` (stereo not shown) [P-246, 7-[3-(3-piperidyl)benzimidazol-5-yl]-2-[2-[3-(trifluoromethoxy)phenyl]ethynyl]-5H-pyrrolo[2,3-b]pyrazine]: the IC50 lay in the range of 0.0001 to 1 µM.
